Laboratory results reported in patent US20230167127A1, “COMPOUNDS AND THEIR USE IN THE TREATMENT OF BACTERIAL INFECTION” (Hoffmann-La Roche Inc., priority 2020, published 2023).

Tested on: Escherichia coli ATCC 25922
Assay: 50% growth inhibitory concentration (IC50) determination, Iso-Sensitest broth dilution
Assay type: cell-based
Conditions: Escherichia coli, ATCC25922, 16 h, strain Escherichia coli ATCC 25922; 10-point broth dilution, optical density at 600 nm over 16 h; read-out: Escherichia coli growth inhibition IC50
How it was run: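 10-point twofold Iso-Sensitest broth dilution (e.g. 50 to 0.097 μM final) with DMSO stocks, incubated at 35±2° C. Growth followed by OD 600 nm every 20 min over 16 h; IC50 derived from growth inhibition during logarithmic phase.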

| IC50 [nM] | SMILES |
| --- | --- |
| 240 | N#Cc1cccc2c1CC(CN1CCC3(CC1)CN(c1ccc4c(n1)NC(=O)CO4)C(=O)O3)C2N (racemic) [Example 131, rac-1,2-trans-1-amino-2-[[2-oxo-3-(3-oxo-4H-pyrido[3,2-b][1,4]oxazin-6-yl)-1-oxa-3,8-diazaspiro[4.5]decan-8-yl]methyl]-2,3-dihydro-1H-indene-4-carbonitrile; formic acid] |
| < 97.7 | N#Cc1cccc2c1C(N)C(CNCCC1CN(c3ccc4c(n3)NC(=O)CS4)C(=O)O1)C2 (racemic) [Example 157, rac-2,3-trans-3-amino-2-[[2-[2-oxo-3-(3-oxo-4H-pyrido[3,2-b][1,4]thiazin-6-yl)-1,3-oxazolidin-5-yl]ethylamino]methyl]-2,3-dihydro-1H-indene-4-carbonitrile] |
| 260 | NCCOc1cc2c(c(Cl)n1)CC(CNCCC1CN(c3ccc4c(n3)NC(=O)CO4)C(=O)O1)C2 (centres unmarked) [Example 126, 6-[5-[2-[[3-(2-aminoethoxy)-1-chloro-6,7-dihydro-5H-cyclopenta[c]pyridin-6-yl]methylamino]ethyl]-2-oxo-1,3-oxazolidin-3-yl]-4H-pyrido[3,2-b][1,4]oxazin-3-one] |
| 449 | N#Cc1cccc2c1CC(N[C@H]1C[C@@H](C3CN(c4ccc5c(n4)NC(=O)CO5)C(=O)O3)C1)C2 (stereo partly drawn) [Example 19, 2-[[cis-3-[2-oxo-3-(3-oxo-4H-pyrido[3,2-b][1,4]oxazin-6-yl)-1,3-oxazolidin-5-yl]cyclobutyl]amino]-2,3-dihydro-1H-indene-4-carbonitrile; formic acid] |
| 249 | Cc1ncc(F)c2c1CC(N[C@H]1CC[C@]3(CC1)CN(c1cnc4c(n1)NC(=O)CO4)C(=O)O3)C2 (stereo partly drawn) [Example 297, trans-6-[8-[(4-fluoro-1-methyl-6,7-dihydro-5H-cyclopenta[c]pyridin-6-yl)amino]-2-oxo-1-oxa-3-azaspiro[4.5]decan-3-yl]-4H-pyrazino[2,3-b][1,4]oxazin-3-one; formic acid] |
| 148 | NC1c2cc(OCC3(N)CC3)cc(Cl)c2CC1CNCCC1CN(c2ccc3c(n2)NC(=O)CO3)C(=O)O1 (racemic) [Example 273, 6-[2-Oxo-5-[2-[[rac-1,2-trans-1-amino-6-[(1-aminocyclopropyl)methoxy]-4-chloro-2,3-dihydro-1H-inden-2-yl]methylamino]ethyl]-1,3-oxazolidin-3-yl]-4H-pyrido[3,2-b][1,4]oxazin-3-one; formic acid] |
| 230 | Cc1ncc(F)c2c1CC(CN1CC(C3CN(c4cnc5c(n4)NC(=O)CO5)C(=O)O3)C1)C2 (centres unmarked) [Example 75, 6-[5-[1-[(4-fluoro-1-methyl-6,7-dihydro-5H-cyclopenta[c]pyridin-6-yl)methyl]azetidin-3-yl]-2-oxo-oxazolidin-3-yl]-4H-pyrazino[2,3-b][1,4]oxazin-3-one; formic acid] |
| 208 | N#Cc1cccc2c1CC(CNC[C@H](O)[C@@H]1CN(c3ccc4c(c3)NC(=O)CO4)C(=O)O1)C2 (stereo partly drawn) [Example 62, 2-[[[(2S)-2-hydroxy-2-[(5S)-2-oxo-3-(3-oxo-4H-1,4-benzoxazin-6-yl)-1,3-oxazolidin-5-yl]ethyl]amino]methyl]-2,3-dihydro-1H-indene-4-carbonitrile; formic acid] |
| < 97.7 | Cc1ncc(F)c2c1CC(CNCCc1cn(-c3cnc4c(n3)NC(=O)CO4)c(=O)o1)C2 (centres unmarked) [Example 293, 6-[5-[2-[(4-fluoro-1-methyl-6,7-dihydro-5H-cyclopenta[c]pyridin-6-yl)methylamino]ethyl]-2-oxo-1,3-oxazol-3-yl]-4H-pyrazino[2,3-b][1,4]oxazin-3-one] |
| < 97.7 | N#Cc1cccc2c1CC(CNCCC1CN(c3ncc4c(n3)NC(=O)CO4)C(=O)O1)C2 (centres unmarked) [Example 289, 2-[[2-[2-oxo-3-(7-oxo-8H-pyrimido [5,4-b] [1,4]oxazin-2-yl)-1,3-oxazolidin-5-yl]ethylamino]methyl]-2,3-dihydro-1H-indene-4-carbonitrile] |
| 403 | CC(C)(O)COc1cc(F)c2c(c1)CC(CNCCC1CN(c3cnc4c(n3)NC(=O)CO4)C(=O)O1)C2 (centres unmarked) [Example 292, 6-[5-[2-[[4-fluoro-6-(2-hydroxy-2-methylpropoxy)-2,3-dihydro-1H-inden-2-yl]methylamino]ethyl]-2-oxo-1,3-oxazolidin-3-yl]-4H-pyrazino[2,3-b][1,4]oxazin-3-one] |
| < 97.7 | Cc1ncc(C#N)c2c1CC(CNCC[C@H]1CN(c3cnc4c(n3)NC(=O)CO4)C(=O)O1)C2 (stereo partly drawn) [Example 364, 1-methyl-6-[[2-[(5S)-2-oxo-3-(3-oxo-4H-pyrazino[2,3-b][1,4]oxazin-6-yl)-1,3-oxazolidin-5-yl]ethylamino]methyl]-6,7-dihydro-5H-cyclopenta[c]pyridine-4-carbonitrile] |
| < 97.7 | N[C@H]1c2cccc(Cl)c2C[C@@H]1CNCC[C@@H]1CN(c2cnc3c(n2)NC(=O)CO3)C(=O)O1 [Example 403, 6-[(5R)-5-[2-[[(1R,2R)-1-amino-4-chloro-2,3-dihydro-1H-inden-2-yl]methylamino]ethyl]-2-oxo-1,3-oxazolidin-3-yl]-4H-pyrazino[2,3-b][1,4]oxazin-3-one] |
| 265 | Cc1ncc(F)c2c1CC(NC(C)CCC1CN(c3cnc4c(n3)NC(=O)CO4)C(=O)O1)C2 (single isomer, unassigned; isomer a) [Example 333, 6-[5-[3-[(4-fluoro-1-methy1-6,7-dihydro-5H-cyclopenta[c]pyridin-6-yl)amino]butyl]-2-oxo-1,3-oxazolidin-3-yl]-4H-pyrazino[2,3-b][1,4]oxazin-3-one, Isomer A] |
| < 97.7 | COc1nc(C)c2c(c1F)CC(CNCCC1CN(c3cnc4c(n3)NC(=O)CO4)C(=O)O1)C2 (centres unmarked) [Example 397, 6-[5-[2-[(4-fluoro-3-methoxy-1-methyl-6,7-dihydro-5H-cyclopenta[c]pyridin-6-yl)methylamino]ethyl]-2-oxo-1,3-oxazolidin-3-yl]-4H-pyrazino[2,3-b][1,4]oxazin-3-one] |
| 2170 | O=C1COc2ccc(N3C[C@H](NC4CC(NC5Cc6cccc(F)c6C5)C4)CC3=O)nc2N1 (stereo partly drawn) [Example 23, 6-[(4R)-4-[[3-[(4-fluoro-2,3-dihydro-1H-inden-2-yl)amino]cyclobutyl]amino]-2-oxopyrrolidin-1-yl]-4H-pyrido[3,2-b][1,4]oxazin-3-one; formic acid] |
| < 97.7 | NC1(COc2cc(F)c3c(c2F)CC(CNCCC2CN(c4cnc5c(n4)NC(=O)CO5)C(=O)O2)C3)CC1 (centres unmarked) [Example 408, 6-[5-[2-[[5-[(1-aminocyclopropyl)methoxy]-4,7-difluoro-2,3-dihydro-1H-inden-2-yl]methylamino]ethyl]-2-oxo-1,3-oxazolidin-3-yl]-4H-pyrazino[2,3-b][1,4]oxazin-3-one; formic acid] |
| 95.1 | Cc1nc2c(c3c1CC(CNCCC1CN(c4ccc5c(n4)NC(=O)CO5)C(=O)O1)C3)CCN2C (centres unmarked) [Example 416, 6-[5-[2-[(5,8-dimethyl-5,7-diazatricyclo[7.3.0.0^2,6]dodeca-1,6,8-trien-11-yl)methylamino]ethyl]-2-oxo-1,3-oxazolidin-3-yl]-4H-pyrido[3,2-b][1,4]oxazin-3-one] |
| < 97.7 | NC1(COc2cc(F)c3c(c2F)CC(CNCCC2CN(c4ccc5c(n4)NC(=O)CO5)C(=O)O2)C3)CC1 (centres unmarked) [Example 409, 6-[5-[2-[[5-[(1-aminocyclopropyl)methoxy]-4,7-difluoro-2,3-dihydro-1H-inden-2-yl]methylamino]ethyl]-2-oxo-1,3-oxazolidin-3-yl]-4H-pyrido[3,2-b][1,4]oxazin-3-one; formic acid] |
| 164 | N#Cc1cccc2c1CC(CNC[C@@H](O)[C@H]1CN(c3ccc4c(c3)NC(=O)CO4)C(=O)O1)C2 (stereo partly drawn) [Example 61, 2-[[[(2R)-2-hydroxy-2-[(5R)-2-oxo-3-(3-oxo-4H-1,4-benzoxazin-6-yl)-1,3-oxazolidin-5-yl]ethyl]amino]methyl]-2,3-dihydro-1H-indene-4-carbonitrile; formic acid] |
| < 97.7 | NC(=O)COc1cc(F)c2c(c1)CC(CNCC[C@H]1CN(c3cnc4c(n3)NC(=O)CO4)C(=O)O1)C2 (single isomer, unassigned; isomer a) [Example 379] |
| 196 | Cc1c(OC[C@H](N)CO)nc(C#N)c2c1CC(CNCCC1CN(c3ccc4c(n3)NC(=O)CO4)C(=O)O1)C2 (stereo partly drawn) [Example 235, 3-[(2R)-2-Amino-3-hydroxypropoxy]-4-methyl-6-[[2-[2-oxo-3-(3-oxo-4H-pyrido[3,2-b][1,4]oxazin-6-yl)-1,3-oxazolidin-5-yl]ethylamino]methyl]-6,7-dihydro-5H-cyclopenta[c]pyridine-1-carbonitrile] |
| 207 | Cc1nccc2c1CC(CN1CCC3(CC1)CN(c1cnc4c(n1)NC(=O)CO4)C(=O)O3)C2 (centres unmarked) [Example 374, 6-[8-[(1-methyl-6,7-dihydro-5H-cyclopenta[c]pyridin-6-yl)methyl]-2-oxo-1-oxa-3,8-diazaspiro[4.5]decan-3-yl]-4H-pyrazino[2,3-b][1,4]oxazin-3-one] |
| 139 | O=C1COc2ccc(N3CC(CCNCCC4Cc5cccc(Cl)c5C4)OC3=O)nc2N1 (centres unmarked) [Example 20, 6-[5-[2-[2-(4-chloro-2,3-dihydro-1H-inden-2-yl)ethylamino]ethyl]-2-oxo-1,3-oxazolidin-3-yl]-4H-pyrido[3,2-b][1,4]oxazin-3-one; formic acid] |
| 145 | Cc1ncc2c(c1F)CC(CNCC[C@@H]1CN(c3cnc4c(n3)NC(=O)CO4)C(=O)O1)C2 (stereo partly drawn) [Example 339, 6-[(5R)-5-[2-[(4-fluoro-3-methyl-6,7-dihydro-5H-cyclopenta[c]pyridin-6-yl)methylamino]ethyl]-2-oxo-1,3-oxazolidin-3-yl]-4H-pyrazino[2,3-b][1,4]oxazin-3-one] |
| < 97.7 | N[C@@H]1c2cccc(Cl)c2C[C@H]1CNCC[C@H]1CN(c2cnc3c(n2)NC(=O)CO3)C(=O)O1 [Example 402, 6-[(5S)-5-[2-[[(1S,2S)-1-amino-4-chloro-2,3-dihydro-1H-inden-2-yl]methylamino]ethyl]-2-oxo-1,3-oxazolidin-3-yl]-4H-pyrazino[2,3-b][1,4]oxazin-3-one] |
